Assay results published in patent US20240116985A1, “STAPLED PEPTIDES AND METHODS THEREOF” (priority 2020, published 2024).
Converted amounts (≈) assume the structure as drawn. Where two headings read alike, the source gives them in different places.

How the values were obtained:
[1] = Solubility in PBS; format: physicochemical
How it was run: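 Read-out is the HPLC peak area of the supernatant from ultracentrifuged PBS solution, scaled against a 50 μM peptide DMSO injection; value reported as [(PBS area)/(DMSO area)]*50 uM.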

[2] = CHI Log D procedure; format: physicochemical; settings: for CHI Log D: pH 7.4

Row | Structure (SMILES) | Solubility ([1]; Solubility (uM)) | chromatographic logD ([2]; pH 7.4, CHI Log D) | Solubility [1] | CHI Log D [2]
1 | CC(=O)N1CCC[C@]12CC=CCCCC1(CCCC=CCCCCCC[C@@](C)(C(=O)N[C@@H](Cc3ccc(C(N)=O)cc3)C(=O)N[C@@H](Cc3csc4ccccc34)C(=O)N[C@@H](CCC(N)=O)C(N)=O)NC(=O)[C@H](C(C)C)NC(=O)[C@H](Cc3ccccc3)NC(=O)[C@H](C)NC(=O)[C@H](C)NC(=O)[C@H](CC(=O)O)NC(=O)[C@H](CC(=O)O)NC1=O)NC(=O)[C@H](C)NC(=O)[C@H](CC(=O)O)NC2=O (stereo partly drawn) [I-337, Ac-PL3-Asp-Ala-B5-Asp-Asp-Ala-Ala-Phe-Val-S8-4CBMF-BztA-Gln-NH2] |  |  | 48 µM (≈ 88.4 µg/mL) | 1.579
2 | CC(=O)N1CCC[C@]12CC=CCCCC1(CCCC=CCCCCCC[C@@](C)(C(=O)N[C@@H](Cc3ccccc3)C(=O)N[C@@H](Cc3c[nH]c4ccccc34)C(=O)N[C@@H](CCC(N)=O)C(N)=O)NC(=O)[C@H](C(C)C)NC(=O)[C@H](Cc3ccccc3)NC(=O)[C@H](C)NC(=O)[C@H](C)NC(=O)[C@H](CC(=O)O)NC(=O)[C@H](CC(=O)O)NC1=O)NC(=O)[C@H](C)NC(=O)[C@H](C)NC2=O (stereo partly drawn) [I-348, Ac-PL3-Ala-Ala-B5-Asp-Asp-Ala-Ala-Phe-Val-S8-Phe-Trp-Gln-NH2] |  |  | 46 µM (≈ 79.9 µg/mL) | 2.397
3 | CC(=O)N1CCC[C@]12CC=CCCCC1(CCCC=CCCCCCC[C@@](C)(C(=O)N[C@@H](Cc3ccccc3)C(=O)N[C@@H](Cc3c[nH]c4ccccc34)C(=O)N[C@@H](CCC(N)=O)C(N)=O)NC(=O)[C@H](C(C)C)NC(=O)[C@H](Cc3ccccc3)NC(=O)[C@H](C)NC(=O)[C@H](C)NC(=O)[C@H](CC(=O)O)NC(=O)[C@H](CC(=O)O)NC1=O)NC(=O)[C@H](C)NC(=O)[C@H](C)NC2=O (stereo partly drawn) [I-349, Ac-PL3-Ala-Ala-B5-Asp-Asp-Ala-Ala-Phe-Val-S8-Phe-Trp-Gln-NH2] |  |  | 49 µM (≈ 85.1 µg/mL) | 2.415
4 | CC(=O)N1CCC[C@]12CC=CCCCC1(CCCC=CCCCCCC[C@@](C)(C(=O)N[C@@H](Cc3ccccc3)C(=O)N[C@@H](Cc3c[nH]c4ccccc34)C(=O)N[C@@H](CCC(N)=O)C(N)=O)NC(=O)[C@H](C(C)C)NC(=O)[C@H](Cc3ccccc3)NC(=O)[C@H](C)NC(=O)[C@H](C)NC(=O)[C@H](CC(=O)O)NC(=O)[C@H](C)NC1=O)NC(=O)[C@H](C)NC(=O)[C@H](CC(=O)O)NC2=O (stereo partly drawn) [I-350, Ac-PL3-Asp-Ala-B5-Ala-Asp-Ala-Ala-Phe-Val-S8-Phe-Trp-Gln-NH2] |  |  | 48 µM (≈ 83.4 µg/mL) | 2.887
5 | CC(=O)N1CCC[C@]12CC=CCCCC1(CCCC=CCCCCCC[C@@](C)(C(=O)N[C@@H](Cc3ccccc3)C(=O)N[C@@H](Cc3c[nH]c4ccccc34)C(=O)N[C@@H](CCC(N)=O)C(N)=O)NC(=O)[C@H](C(C)C)NC(=O)[C@H](Cc3ccccc3)NC(=O)[C@H](C)NC(=O)[C@H](C)NC(=O)[C@H](CC(=O)O)NC(=O)[C@H](C)NC1=O)NC(=O)[C@H](C)NC(=O)[C@H](CC(=O)O)NC2=O (stereo partly drawn) [I-351, Ac-PL3-Asp-Ala-B5-Ala-Asp-Ala-Ala-Phe-Val-S8-Phe-Trp-Gln-NH2] |  |  | 50 µM (≈ 86.9 µg/mL) | 2.944
6 | CC(=O)N1CCC[C@]12CC=CCCCC1(CCCC=CCCCCCC[C@@](C)(C(=O)N[C@@H](Cc3ccccc3)C(=O)N[C@@H](Cc3csc4ccccc34)C(=O)N[C@@H](CCC(N)=O)C(N)=O)NC(=O)[C@H](C)NC(=O)[C@H](Cc3c[nH]cn3)NC(=O)[C@H](C)NC(=O)[C@H](C)NC(=O)[C@H](CC(=O)O)NC(=O)[C@H](CC(=O)O)NC1=O)NC(=O)[C@H](C)NC(=O)[C@H](CC(=O)O)NC2=O (stereo partly drawn) [I-363, Ac-PL3-Asp-Ala-B5-Asp-Asp-Ala-Ala-His-Ala-S8-Phe-BztA-Gln-NH2] |  |  | 32 µM (≈ 56.3 µg/mL) | 2.09
7 | CC(=O)N1CCC[C@]12CC=CCCCC1(CCCC=CCCCCCC[C@@](C)(C(=O)N[C@@H](Cc3ccccc3)C(=O)N[C@@H](Cc3csc4ccccc34)C(=O)N[C@@H](CCC(N)=O)C(N)=O)NC(=O)[C@H](C)NC(=O)[C@H](Cc3c[nH]cn3)NC(=O)[C@H](C)NC(=O)[C@H](C)NC(=O)[C@H](CC(=O)O)NC(=O)[C@H](CC(=O)O)NC1=O)NC(=O)[C@H](C)NC(=O)[C@H](CC(=O)O)NC2=O (stereo partly drawn) [I-364, Ac-PL3-Asp-Ala-B5-Asp-Asp-Ala-Ala-His-Ala-S8-Phe-BztA-Gln-NH2] |  |  | 26 µM (≈ 45.8 µg/mL) | 2.137
8 | CC(=O)N1CCC[C@]12CC=CCCCC1(CCCC=CCCCCCC[C@@](C)(C(=O)N[C@@H](Cc3ccccn3)C(=O)N[C@@H](Cc3csc4ccccc34)C(=O)N[C@@H](CCC(N)=O)C(N)=O)NC(=O)[C@H](C(C)C)NC(=O)[C@H](Cc3ccccc3)NC(=O)[C@H](C)NC(=O)[C@H](C)NC(=O)[C@H](CCC(=O)O)NC(=O)[C@H](CC(=O)O)NC1=O)NC(=O)[C@H](C)NC(=O)[C@H](CC(=O)O)NC2=O (stereo partly drawn) [I-383, Ac-PL3-Asp-Ala-B5-Asp-Glu-Ala-Ala-Phe-Val-S8-2pyrA-BztA-Gln-NH2] |  |  | 36 µM (≈ 65.3 µg/mL) | 1.859
9 | CC(=O)N1CCC[C@]12CC=CCCCC1(CCCC=CCCCCCC[C@@](C)(C(=O)N[C@@H](Cc3ccccc3)C(=O)N[C@@H](Cc3csc4ccccc34)C(=O)N[C@@H](CCC(N)=O)C(N)=O)NC(=O)[C@H](C(C)C)NC(=O)[C@H](Cc3ccccn3)NC(=O)[C@H](C)NC(=O)[C@H](C)NC(=O)[C@H](CCC(=O)O)NC(=O)[C@H](CC(=O)O)NC1=O)NC(=O)[C@H](C)NC(=O)[C@H](CC(=O)O)NC2=O (stereo partly drawn) [I-386, Ac-PL3-Asp-Ala-B5-Asp-Glu-Ala-Ala-2pyrA-Val-S8-Phe-BztA-Gln-NH2] |  |  | 47 µM (≈ 85.2 µg/mL) | 2.14

The next lines start with the values.

Row | Solubility ([1]; Solubility (uM)) | chromatographic logD ([2]; pH 7.4, CHI Log D) | Solubility [1] | CHI Log D [2] | Structure (SMILES)
10 | 40 µM (≈ 69.9 µg/mL) | 1.52 |  |  | CC(=O)N1CCC[C@]12CC=CCCCC1(CCCC=CCCCCCC[C@@](C)(C(=O)N[C@@H](CC(N)=O)C(=O)N[C@@H](Cc3c[nH]c4ccccc34)C(=O)N[C@@H](CCC(N)=O)C(N)=O)NC(=O)[C@H](C(C)C)NC(=O)[C@H](Cc3ccccc3)NC(=O)[C@H](C)NC(=O)[C@H](C)NC(=O)[C@H](CC(=O)O)NC(=O)[C@H](CC(=O)O)NC1=O)NC(=O)[C@H](C)NC(=O)[C@H](CC(=O)O)NC2=O (stereo partly drawn) [I-284, Ac-PL3-Asp-Ala-B5-Asp-Asp-Ala-Ala-Phe-Val-S8-Asn-Trp-Gln-NH2]
11 |  |  | 41 µM (≈ 73.2 µg/mL) | 2.01 | CC(=O)N1CCC[C@]12CC=CCCCC1(CCCC=CCCCCCC[C@@](C)(C(=O)N[C@@H](Cc3ccccc3)C(=O)N[C@@H](Cc3c[nH]c4ccccc34)C(=O)N[C@@H](CCC(N)=O)C(N)=O)NC(=O)[C@H](C(C)C)NC(=O)[C@H](Cc3cn(C)cn3)NC(=O)[C@H](C)NC(=O)[C@H](C)NC(=O)[C@H](CC(=O)O)NC(=O)[C@H](CC(=O)O)NC1=O)NC(=O)[C@H](C)NC(=O)[C@H](CC(=O)O)NC2=O (stereo partly drawn) [I-329, Ac-PL3-Asp-Ala-B5-Asp-Asp-Ala-Ala-1meH-Val-S8-Phe-Trp-Gln-NH2]
12 |  |  | 21 µM (≈ 37.5 µg/mL) | 2.047 | CC(=O)N1CCC[C@]12CC=CCCCC1(CCCC=CCCCCCC[C@@](C)(C(=O)N[C@@H](Cc3ccccc3)C(=O)N[C@@H](Cc3c[nH]c4ccccc34)C(=O)N[C@@H](CCC(N)=O)C(N)=O)NC(=O)[C@H](C(C)C)NC(=O)[C@H](Cc3cn(C)cn3)NC(=O)[C@H](C)NC(=O)[C@H](C)NC(=O)[C@H](CC(=O)O)NC(=O)[C@H](CC(=O)O)NC1=O)NC(=O)[C@H](C)NC(=O)[C@H](CC(=O)O)NC2=O (stereo partly drawn) [I-330, Ac-PL3-Asp-Ala-B5-Asp-Asp-Ala-Ala-1meH-Val-S8-Phe-Trp-Gln-NH2]
13 |  |  | 47 µM (≈ 86.5 µg/mL) | 1.586 | CC(=O)N1CCC[C@]12CC=CCCCC1(CCCC=CCCCCCC[C@@](C)(C(=O)N[C@@H](Cc3ccc(C(N)=O)cc3)C(=O)N[C@@H](Cc3csc4ccccc34)C(=O)N[C@@H](CCC(N)=O)C(N)=O)NC(=O)[C@H](C(C)C)NC(=O)[C@H](Cc3ccccc3)NC(=O)[C@H](C)NC(=O)[C@H](C)NC(=O)[C@H](CC(=O)O)NC(=O)[C@H](CC(=O)O)NC1=O)NC(=O)[C@H](C)NC(=O)[C@H](CC(=O)O)NC2=O (stereo partly drawn) [I-338, Ac-PL3-Asp-Ala-B5-Asp-Asp-Ala-Ala-Phe-Val-S8-4CBMF-BztA-Gln-NH2]
14 |  |  | 50 µM (≈ 92.1 µg/mL) | 1.328 | CC(=O)N1CCC[C@]12CC=CCCCC1(CCCC=CCCCCCC[C@@](C)(C(=O)N[C@@H](Cc3ccc(C(=O)O)cc3)C(=O)N[C@@H](Cc3csc4ccccc34)C(=O)N[C@@H](CCC(N)=O)C(N)=O)NC(=O)[C@H](C(C)C)NC(=O)[C@H](Cc3ccccc3)NC(=O)[C@H](C)NC(=O)[C@H](C)NC(=O)[C@H](CC(=O)O)NC(=O)[C@H](CC(=O)O)NC1=O)NC(=O)[C@H](C)NC(=O)[C@H](CC(=O)O)NC2=O (stereo partly drawn) [I-339, Ac-PL3-Asp-Ala-B5-Asp-Asp-Ala-Ala-Phe-Val-S8-4COOHF-BztA-Gln-NH2]
15 |  |  | 49 µM (≈ 90.3 µg/mL) | 1.341 | CC(=O)N1CCC[C@]12CC=CCCCC1(CCCC=CCCCCCC[C@@](C)(C(=O)N[C@@H](Cc3ccc(C(=O)O)cc3)C(=O)N[C@@H](Cc3csc4ccccc34)C(=O)N[C@@H](CCC(N)=O)C(N)=O)NC(=O)[C@H](C(C)C)NC(=O)[C@H](Cc3ccccc3)NC(=O)[C@H](C)NC(=O)[C@H](C)NC(=O)[C@H](CC(=O)O)NC(=O)[C@H](CC(=O)O)NC1=O)NC(=O)[C@H](C)NC(=O)[C@H](CC(=O)O)NC2=O (stereo partly drawn) [I-340, Ac-PL3-Asp-Ala-B5-Asp-Asp-Ala-Ala-Phe-Val-S8-4COOHF-BztA-Gln-NH2]
16 |  |  | 49 µM (≈ 83.5 µg/mL) | 1.606 | CC(=O)N1CCC[C@]12CC=CCCCC1(CCCC=CCCCCCC[C@@](C)(C(=O)N[C@@H](C)C(=O)N[C@@H](Cc3c[nH]c4ccccc34)C(=O)N[C@@H](CCC(N)=O)C(N)=O)NC(=O)[C@H](C(C)C)NC(=O)[C@H](Cc3ccccc3)NC(=O)[C@H](C)NC(=O)[C@H](C)NC(=O)[C@H](CC(=O)O)NC(=O)[C@H](CC(=O)O)NC1=O)NC(=O)[C@H](C)NC(=O)[C@H](CC(=O)O)NC2=O (stereo partly drawn) [I-355, Ac-PL3-Asp-Ala-B5-Asp-Asp-Ala-Ala-Phe-Val-S8-Ala-Trp-Gln-NH2]
17 |  |  | 50 µM (≈ 83.3 µg/mL) | 1.882 | CC(=O)N1CCC[C@]12CC=CCCCC1(CCCC=CCCCCCC[C@@](C)(C(=O)N[C@@H](Cc3ccccc3)C(=O)N[C@@H](C)C(=O)N[C@@H](CCC(N)=O)C(N)=O)NC(=O)[C@H](C(C)C)NC(=O)[C@H](Cc3ccccc3)NC(=O)[C@H](C)NC(=O)[C@H](C)NC(=O)[C@H](CC(=O)O)NC(=O)[C@H](CC(=O)O)NC1=O)NC(=O)[C@H](C)NC(=O)[C@H](CC(=O)O)NC2=O (stereo partly drawn) [I-358, Ac-PL3-Asp-Ala-B5-Asp-Asp-Ala-Ala-Phe-Val-S8-Phe-Ala-Gln-NH2]
